# Tested on: 941728-121-R-J1-PDC complex spheroid viability
# Assay: Anticancer human tumor 941728-121-R-J1-PDC patient-derived lung adenocarcinoma cell line growth inhibition [RAS]
# Conditions: for IC50: curve of first compound; for viability, T/C: stronger effect = lower value
# In short: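 Tumour cells grown as complex spheroids with HUVEC endothelial cells and mesenchymal stem cells, treated with RAS pathway inhibitor combinations. Each agent spans half-log steps from near clinical Cmax, or 10 microM where Cmax is unknown.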
# [1] = second compound 0.000949 µM, first compound 0.0316 µM
# [2] = second compound 0.000949 µM, first compound 0.1 µM
# [3] = second compound 0.000949 µM, first compound 0.316 µM
# [4] = second compound 0.000949 µM, first compound 1 µM
# [5] = second compound 0.000949 µM, first compound 3.16 µM
# [6] = second compound 0.000949 µM, first compound 10 µM
# [7] = second compound 0.003 µM, first compound 0.0316 µM
# [8] = second compound 0.003 µM, first compound 0.1 µM
# [9] = second compound 0.003 µM, first compound 0.316 µM
# [10] = second compound 0.003 µM, first compound 1 µM
# [11] = second compound 0.003 µM, first compound 3.16 µM
# [12] = second compound 0.003 µM, first compound 10 µM
# [13] = second compound 0.00949 µM, first compound 0.0316 µM
# [14] = second compound 0.00949 µM, first compound 0.1 µM
# [15] = second compound 0.00949 µM, first compound 0.316 µM
# [16] = second compound 0.00949 µM, first compound 1 µM
# [17] = second compound 0.00949 µM, first compound 3.16 µM
# [18] = second compound 0.00949 µM, first compound 10 µM
# [19] = second compound 0.03 µM, first compound 0.0316 µM
# [20] = second compound 0.03 µM, first compound 0.1 µM
# [21] = second compound 0.03 µM, first compound 0.316 µM
# [22] = second compound 0.03 µM, first compound 1 µM
# [23] = second compound 0.03 µM, first compound 3.16 µM
# [24] = second compound 0.03 µM, first compound 10 µM
# [25] = second compound 0.0949 µM, first compound 0.0316 µM
# [26] = second compound 0.0949 µM, first compound 0.1 µM
# [27] = second compound 0.0949 µM, first compound 0.316 µM
# [28] = second compound 0.0949 µM, first compound 1 µM
# [29] = second compound 0.0949 µM, first compound 3.16 µM
# [30] = second compound 0.0949 µM, first compound 10 µM
# [31] = second compound 0.3 µM, first compound 0.0316 µM
# [32] = second compound 0.3 µM, first compound 0.1 µM
# [33] = second compound 0.3 µM, first compound 0.316 µM
# [34] = second compound 0.3 µM, first compound 1 µM
# [35] = second compound 0.3 µM, first compound 3.16 µM
# [36] = second compound 0.3 µM, first compound 10 µM
# 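Note: spheroids exposed to compounds for 7 days before readout.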
# 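Throughout, for viability, T/C: 100% = DMSO vehicle control viability.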
smiles,measurement,setting,value
CCC(CC)c1cc(NC2CCC(N)C2)n2nccc2n1 (stereo unspecified) + CCn1c(-c2cccnc2C(C)OC)c2c3cc(ccc31)N1CCOC(CC(NC(=O)C(C(C)C)N(C)C(=O)C3(F)CCN(C(=O)C#CC(C)(C)N(C)C)CC3)C(=O)N3CCCC(N3)C(=O)OCC(C)(C)C2)C1,IC50,second compound 0.000949 µM,< 31.6 nM
same,IC50,second compound 0.003 µM,< 31.6 nM
same,IC50,second compound 0.00949 µM,< 31.6 nM
same,IC50,second compound 0.03 µM,< 31.6 nM
same,IC50,second compound 0.0949 µM,< 31.6 nM
same,IC50,second compound 0.3 µM,< 31.6 nM
same,"viability, T/C",[1],24.2%
same,"viability, T/C",[2],25.9%
same,"viability, T/C",[3],22.9%
same,"viability, T/C",[4],31.1%
same,"viability, T/C",[5],14.9%
same,"viability, T/C",[6],32.4%
same,"viability, T/C",[7],23.2%
same,"viability, T/C",[8],24.3%
same,"viability, T/C",[9],23%
same,"viability, T/C",[10],29.3%
same,"viability, T/C",[11],12.1%
same,"viability, T/C",[12],39%
same,"viability, T/C",[13],25.1%
same,"viability, T/C",[14],23.2%
same,"viability, T/C",[15],24.5%
same,"viability, T/C",[16],31.1%
same,"viability, T/C",[17],13.7%
same,"viability, T/C",[18],40.9%
same,"viability, T/C",[19],23%
same,"viability, T/C",[20],25.1%
same,"viability, T/C",[21],27.3%
same,"viability, T/C",[22],33.5%
same,"viability, T/C",[23],14.6%
same,"viability, T/C",[24],45%
same,"viability, T/C",[25],21.5%
same,"viability, T/C",[26],24.5%
same,"viability, T/C",[27],29%
same,"viability, T/C",[28],32.5%
same,"viability, T/C",[29],16.1%
same,"viability, T/C",[30],48.7%
same,"viability, T/C",[31],23.3%
same,"viability, T/C",[32],26.9%
same,"viability, T/C",[33],31.1%
same,"viability, T/C",[34],33.1%
same,"viability, T/C",[35],13.1%
same,"viability, T/C",[36],44.8%
NC1c2ccccc2OC12CCN(c1cnc3c(N4CCCc5ncccc54)n[nH]c3n1)CC2 (stereo unspecified) + C=CC(=O)N1CCN(c2nc(OCC3CCCN3C)nc3c(F)c(-c4nc(N)cc(C)c4C(F)(F)F)c(Cl)cc23)C(C)C1,IC50,second compound 0.00316 µM,< 31.6 nM
same,IC50,second compound 0.01 µM,< 31.6 nM
same,IC50,second compound 0.0316 µM,< 31.6 nM
same,IC50,second compound 0.1 µM,< 31.6 nM
same,IC50,second compound 0.316 µM,< 31.6 nM
same,IC50,second compound 1 µM,< 31.6 nM
same,"viability, T/C","second compound 0.00316 µM, first compound 0.0316 µM",15.4%
same,"viability, T/C","second compound 0.00316 µM, first compound 0.1 µM",15.1%
same,"viability, T/C","second compound 0.00316 µM, first compound 0.316 µM",15.6%
same,"viability, T/C","second compound 0.00316 µM, first compound 1 µM",17%
same,"viability, T/C","second compound 0.00316 µM, first compound 3.16 µM",16.8%
same,"viability, T/C","second compound 0.00316 µM, first compound 10 µM",17.1%
same,"viability, T/C","second compound 0.01 µM, first compound 0.0316 µM",18.8%
same,"viability, T/C","second compound 0.01 µM, first compound 0.1 µM",15.7%
same,"viability, T/C","second compound 0.01 µM, first compound 0.316 µM",16.2%
same,"viability, T/C","second compound 0.01 µM, first compound 1 µM",15.5%
same,"viability, T/C","second compound 0.01 µM, first compound 3.16 µM",17.1%
same,"viability, T/C","second compound 0.01 µM, first compound 10 µM",17.5%
same,"viability, T/C","second compound 0.0316 µM, first compound 0.0316 µM",16.4%
same,"viability, T/C","second compound 0.0316 µM, first compound 0.1 µM",15.7%
same,"viability, T/C","second compound 0.0316 µM, first compound 0.316 µM",15.8%
same,"viability, T/C","second compound 0.0316 µM, first compound 1 µM",16.8%
same,"viability, T/C","second compound 0.0316 µM, first compound 3.16 µM",15.9%
same,"viability, T/C","second compound 0.0316 µM, first compound 10 µM",16.3%
same,"viability, T/C","second compound 0.1 µM, first compound 0.0316 µM",15%
same,"viability, T/C","second compound 0.1 µM, first compound 0.1 µM",15.3%
same,"viability, T/C","second compound 0.1 µM, first compound 0.316 µM",16%
same,"viability, T/C","second compound 0.1 µM, first compound 1 µM",17.6%
same,"viability, T/C","second compound 0.1 µM, first compound 3.16 µM",17%
same,"viability, T/C","second compound 0.1 µM, first compound 10 µM",17%
same,"viability, T/C","second compound 0.316 µM, first compound 0.0316 µM",16.3%
same,"viability, T/C","second compound 0.316 µM, first compound 0.1 µM",16.8%
same,"viability, T/C","second compound 0.316 µM, first compound 0.316 µM",17%
same,"viability, T/C","second compound 0.316 µM, first compound 1 µM",16.9%
same,"viability, T/C","second compound 0.316 µM, first compound 3.16 µM",15.7%
same,"viability, T/C","second compound 0.316 µM, first compound 10 µM",16%
same,"viability, T/C","second compound 1 µM, first compound 0.0316 µM",16.1%
same,"viability, T/C","second compound 1 µM, first compound 0.1 µM",15.1%
same,"viability, T/C","second compound 1 µM, first compound 0.316 µM",16%
same,"viability, T/C","second compound 1 µM, first compound 1 µM",16.6%
same,"viability, T/C","second compound 1 µM, first compound 3.16 µM",17.6%
same,"viability, T/C","second compound 1 µM, first compound 10 µM",17.2%
C[C@@H](NC(=O)c1ncnc(N)c1Cl)c1ncc(C(=O)Nc2cc(C(F)(F)F)c(Cl)cn2)s1 + CCn1c(-c2cc(N3CCN(C)CC3)cnc2C(C)OC)c2c3cc(ccc31)-c1csc(n1)CC(NC(=O)C1CC1C)C(=O)N1CCCC(N1)C(=O)OCC(C)(C)C2,IC50,second compound 0.000949 µM,< 31.6 nM
same,IC50,second compound 0.003 µM,< 31.6 nM
same,IC50,second compound 0.00949 µM,< 31.6 nM
same,IC50,second compound 0.03 µM,< 31.6 nM
same,IC50,second compound 0.0949 µM,< 31.6 nM
same,IC50,second compound 0.3 µM,< 31.6 nM
same,"viability, T/C",[1],28.7%
same,"viability, T/C",[2],30.9%
same,"viability, T/C",[3],22.4%
same,"viability, T/C",[4],34%
same,"viability, T/C",[5],33.6%
same,"viability, T/C",[6],24.5%
same,"viability, T/C",[7],27.8%
same,"viability, T/C",[8],24.4%
same,"viability, T/C",[9],22.4%
same,"viability, T/C",[10],24.9%
same,"viability, T/C",[11],27.9%
same,"viability, T/C",[12],20%
same,"viability, T/C",[13],19.1%
same,"viability, T/C",[14],15.5%
same,"viability, T/C",[15],21.6%
same,"viability, T/C",[16],21.9%
same,"viability, T/C",[17],19.7%
same,"viability, T/C",[18],17.9%
same,"viability, T/C",[19],14.1%
same,"viability, T/C",[20],16.5%
same,"viability, T/C",[21],17.1%
same,"viability, T/C",[22],15.4%
same,"viability, T/C",[23],15.4%
same,"viability, T/C",[24],14.9%
same,"viability, T/C",[25],13.6%
same,"viability, T/C",[26],15.7%
same,"viability, T/C",[27],14.3%
same,"viability, T/C",[28],14.3%
same,"viability, T/C",[29],11.7%
same,"viability, T/C",[30],13.6%
same,"viability, T/C",[31],13.8%
same,"viability, T/C",[32],13.7%
same,"viability, T/C",[33],15.6%
same,"viability, T/C",[34],13.8%
same,"viability, T/C",[35],12.3%
same,"viability, T/C",[36],11.9%

# Source: PubChem BioAssay AID2060896 (Molecular Pharmacology Branch, DTP, NCI, 2025)
